The results in this text go back to ChEMBL document CHEMBL2074262, “Molecular identification and characterization of novel members of the human organic anion transporter (OATP) family” (Biochem Biophys Res Commun, 2000).

Molecules are shown by their SMILES.

Common to all, as to assay type: functional, cell-based
For data set [1], the target named is T1, Solute carrier organic anion transporter family member 2B1 (Homo sapiens, UniProt O94956).
T1 sequence (O94956 whole entry): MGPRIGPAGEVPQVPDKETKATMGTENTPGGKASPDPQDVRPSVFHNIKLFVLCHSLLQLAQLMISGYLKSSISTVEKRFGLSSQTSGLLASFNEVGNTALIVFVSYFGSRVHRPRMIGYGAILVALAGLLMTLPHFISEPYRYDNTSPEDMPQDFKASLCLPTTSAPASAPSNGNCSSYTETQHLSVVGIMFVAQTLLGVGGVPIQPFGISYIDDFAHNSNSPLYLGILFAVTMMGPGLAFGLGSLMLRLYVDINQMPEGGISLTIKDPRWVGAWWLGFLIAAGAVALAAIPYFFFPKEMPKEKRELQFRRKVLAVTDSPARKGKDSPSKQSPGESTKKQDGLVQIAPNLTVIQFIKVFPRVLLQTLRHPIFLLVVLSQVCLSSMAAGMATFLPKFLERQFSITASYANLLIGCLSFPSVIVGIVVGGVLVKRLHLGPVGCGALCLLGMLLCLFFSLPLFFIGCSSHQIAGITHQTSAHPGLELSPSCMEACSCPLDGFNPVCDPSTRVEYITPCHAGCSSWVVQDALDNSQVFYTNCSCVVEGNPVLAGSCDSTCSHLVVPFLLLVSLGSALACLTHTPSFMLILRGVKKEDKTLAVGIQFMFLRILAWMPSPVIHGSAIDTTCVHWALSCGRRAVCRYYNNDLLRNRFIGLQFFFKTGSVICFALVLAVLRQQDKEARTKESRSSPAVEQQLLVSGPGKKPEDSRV
In words: TP_TRANSPORTER: uptake in OATP-B-expressing HEK293 cells.

Data set [2] has as its target T2, Solute carrier organic anion transporter family member 3A1 (Homo sapiens, UniProt Q9UIG8).
T2 sequence (Q9UIG8 whole entry): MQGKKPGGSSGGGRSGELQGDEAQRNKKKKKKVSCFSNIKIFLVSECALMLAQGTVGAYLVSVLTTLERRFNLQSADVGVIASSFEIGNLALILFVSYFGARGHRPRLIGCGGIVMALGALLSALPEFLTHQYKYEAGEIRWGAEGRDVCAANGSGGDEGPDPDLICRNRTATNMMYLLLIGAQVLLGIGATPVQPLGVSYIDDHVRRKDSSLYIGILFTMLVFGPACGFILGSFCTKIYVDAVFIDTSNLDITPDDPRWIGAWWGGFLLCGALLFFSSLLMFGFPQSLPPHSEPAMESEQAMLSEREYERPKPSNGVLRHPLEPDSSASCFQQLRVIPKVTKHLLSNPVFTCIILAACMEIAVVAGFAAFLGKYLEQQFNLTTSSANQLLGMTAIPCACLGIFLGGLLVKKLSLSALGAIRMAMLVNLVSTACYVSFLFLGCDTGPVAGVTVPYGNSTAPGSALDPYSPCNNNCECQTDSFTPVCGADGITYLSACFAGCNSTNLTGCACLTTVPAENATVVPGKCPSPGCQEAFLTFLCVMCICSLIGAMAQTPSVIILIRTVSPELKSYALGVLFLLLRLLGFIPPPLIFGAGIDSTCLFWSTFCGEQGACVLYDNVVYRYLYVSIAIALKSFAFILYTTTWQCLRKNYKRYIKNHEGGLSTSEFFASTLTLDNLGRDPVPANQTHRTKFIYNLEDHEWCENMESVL
In words: TP_TRANSPORTER: uptake in OATP-D-expressing HEK293 cells.

Data set [3] concerns the target T3, Solute carrier organic anion transporter family member 4A1 (Homo sapiens, UniProt Q96BD0).
T3 sequence (Q96BD0 whole entry): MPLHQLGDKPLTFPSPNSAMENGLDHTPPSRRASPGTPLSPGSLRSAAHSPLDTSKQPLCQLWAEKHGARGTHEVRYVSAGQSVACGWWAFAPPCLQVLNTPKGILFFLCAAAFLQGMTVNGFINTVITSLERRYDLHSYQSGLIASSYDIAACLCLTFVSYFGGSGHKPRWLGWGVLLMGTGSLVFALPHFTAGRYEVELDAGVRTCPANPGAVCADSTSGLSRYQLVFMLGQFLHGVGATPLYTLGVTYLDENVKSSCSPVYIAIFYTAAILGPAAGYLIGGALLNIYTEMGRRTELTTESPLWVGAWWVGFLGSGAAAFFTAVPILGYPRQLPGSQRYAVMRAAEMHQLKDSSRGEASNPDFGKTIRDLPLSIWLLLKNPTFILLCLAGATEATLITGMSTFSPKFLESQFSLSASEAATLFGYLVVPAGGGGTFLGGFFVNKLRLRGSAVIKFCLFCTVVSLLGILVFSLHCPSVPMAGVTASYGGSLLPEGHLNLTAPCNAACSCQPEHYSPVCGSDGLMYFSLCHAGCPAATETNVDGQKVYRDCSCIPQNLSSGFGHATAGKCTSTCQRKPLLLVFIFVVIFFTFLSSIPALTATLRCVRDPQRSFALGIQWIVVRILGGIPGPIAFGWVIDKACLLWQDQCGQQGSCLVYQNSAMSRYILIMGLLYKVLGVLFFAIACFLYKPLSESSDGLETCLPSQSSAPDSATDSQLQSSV
In words: TP_TRANSPORTER: uptake in OATP-E-expressing HEK293 cells.

Data set [4] deals with T4, Solute carrier organic anion transporter family member 1B1 (Homo sapiens, UniProt Q9Y6L6).
T4 sequence (Q9Y6L6 whole entry): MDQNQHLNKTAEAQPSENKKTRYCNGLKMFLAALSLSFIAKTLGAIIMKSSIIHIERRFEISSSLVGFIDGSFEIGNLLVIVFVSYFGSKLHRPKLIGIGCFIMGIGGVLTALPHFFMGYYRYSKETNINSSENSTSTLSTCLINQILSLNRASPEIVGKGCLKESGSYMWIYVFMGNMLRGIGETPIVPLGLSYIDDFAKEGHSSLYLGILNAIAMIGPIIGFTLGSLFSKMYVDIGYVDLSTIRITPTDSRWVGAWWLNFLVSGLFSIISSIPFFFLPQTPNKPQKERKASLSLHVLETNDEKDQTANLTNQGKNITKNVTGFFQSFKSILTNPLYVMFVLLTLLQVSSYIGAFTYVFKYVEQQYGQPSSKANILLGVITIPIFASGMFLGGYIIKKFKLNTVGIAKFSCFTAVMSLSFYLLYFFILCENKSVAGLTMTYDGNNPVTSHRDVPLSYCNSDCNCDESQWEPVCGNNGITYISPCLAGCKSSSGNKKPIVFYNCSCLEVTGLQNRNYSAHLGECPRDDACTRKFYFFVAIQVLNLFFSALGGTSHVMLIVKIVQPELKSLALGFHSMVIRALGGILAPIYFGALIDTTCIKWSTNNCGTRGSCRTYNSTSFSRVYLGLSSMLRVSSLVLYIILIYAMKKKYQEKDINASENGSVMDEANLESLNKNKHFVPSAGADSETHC
In words: TP_TRANSPORTER: uptake in OATP-C-expressing HEK293 cells.

Consider `CCCCC[C@H](O)/C=C/[C@H]1[C@H](O)CC(=O)[C@@H]1C/C=C\CCCC(=O)O` [DINOPROSTONE], for which the Activity result in data set [1], in data set [2], in data set [3] and in data set [4] was “substrate [+]” throughout.
For `C[C@]12CC[C@@H]3c4ccc(O)cc4CC[C@H]3[C@@H]1CC[C@@H]2O[C@@H]1O[C@H](C(=O)O)[C@@H](O)[C@H](O)[C@H]1O` [ESTRADIOL 17B GLUCURONIDE], the Activity result in data set [3] is “substrate [+]”.
Regarding `C[C@]12CC[C@@H]3c4ccc(OS(=O)(=O)O)cc4CC[C@H]3[C@@H]1CCC2=O` [ESTRONE SULFURIC ACID], the Activity result in data set [2] and in data set [3] was “substrate [+]” in each case.
For `CC1(C)S[C@@H]2[C@H](NC(=O)Cc3ccccc3)C(=O)N2[C@H]1C(=O)O` [PENICILLIN G], the Activity result in data set [1], in data set [2], in data set [3] and in data set [4] was “substrate [+]” throughout.
